From patent US20060063766A1, “Use of aryl- and heteroaryl-substituted tetrahydroisoquinolines to block reuptake of norepinephrine, dopamine, and serotonin” (priority 2004, published 2006)
Where a name gives a salt, the structure may show the parent alone.

Row | Compound | melting point [°C]
1 | CN1Cc2ccccc2C(c2ccc3[nH]ncc3c2)C1.O=C(O)/C=C/C(=O)O (stereo not shown) | 83 to 88
2 | CN1Cc2ccccc2C(c2ccc3c(cnn3Cc3cccc(C#N)c3)c2)C1.O=C(O)/C=C\C(=O)O (stereo not shown) | 83 to 88
3 | CN1Cc2ccccc2C(c2ccc3cn[nH]c3c2)C1.O=C(O)/C=C/C(=O)O (stereo not shown) | 110 to 117
4 | COc1c(O)ccc2c1CN(C)CC2c1ccc2ccccc2c1.O=C(O)/C=C\C(=O)O (stereo not shown) | 85 to 90
5 | CN1Cc2cc(C#N)ccc2C(c2ccc3sccc3c2)C1 (stereo not shown) (as salt: fumarate) | 112 to 114
6 | COc1c(C2CN(C)Cc3ccccc32)ccc2ccsc12 (stereo not shown) (as salt: fumarate) | 98 to 99
7 | COc1c(C2CN(C)Cc3ccccc32)ccc2sccc12 (stereo not drawn) (as salt: fumarate) [82 (+)] | 97 to 99
8 | COc1c(C2CN(C)Cc3ccccc32)ccc2sccc12 (stereo not drawn) (as salt: fumarate) [Example 82 (−)] | 94 to 96
9 | CCN1Cc2ccccc2C(c2ccc3sccc3c2O)C1 (stereo not drawn) (as salt: fumarate) [Example 89 (+)] | 158 to 159
10 | Cc1cccc2c1CN(C)CC2c1ccc2ccccc2c1 (stereo not shown) (as salt: hydrochloride) | 210 to 214
11 | CN1Cc2cc(-c3cccnn3)ccc2C(c2cc3ccccc3s2)C1 (stereo not shown) (as salt: maleate) | 99 to 102
12 | CN1Cc2cc(N3CCOCC3)ccc2C(c2cc3ccccc3s2)C1 (stereo not shown) (as salt: maleate) | 142 to 145
13 | CN1Cc2cc(C#N)ccc2C(c2cc3ccccc3s2)C1 (stereo not drawn) (as salt: maleate) [Example 79 (−)] | 80 to 84
14 | CN1Cc2ccccc2C(c2nc3ccccc3o2)C1.O=C(O)/C=C\C(=O)O (racemic) | 135 to 140
15 | CN1Cc2ccccc2C(c2nc3ccccc3s2)C1.O=C(O)/C=C\C(=O)O (racemic) | 165 to 170
16 | CN1Cc2c(cccc2N2CCOCC2)C(c2ccc3sccc3c2)C1.O=C(O)/C=C/C(=O)O (racemic) | 148 to 153
17 | CN(C)Cc1ccc2c(c1)CN(C)CC2c1ccc2sccc2c1 (racemic) (as salt: fumarate) | 123 to 125
18 | CN1Cc2ccccc2C(c2ccc3c(Cl)c[nH]c3c2)C1 (racemic) (as salt: maleate) | 94 to 98
19 | CN1Cc2cc(N3CCOCC3)ccc2C(c2cccc3sccc23)C1 (racemic) (as salt: maleate) | 103 to 107

Second part, the molecule after the results:

Row | melting point [°C] | Compound
20 | 167 to 169 | CN1Cc2ccccc2C(c2ccc3[nH]ncc3c2)C1 (stereo not shown)
21 | 91 to 92 | CCN1Cc2ccccc2C(c2ccc3sccc3c2OC)C1 (stereo not shown) (as salt: fumarate)
22 | 116 to 119 | CN1Cc2cc(-c3ccc(N(C)C)nn3)ccc2C(c2ccc3sccc3c2)C1 (stereo not shown) (as salt: fumarate)
23 | 213 to 215 | CN1Cc2ccccc2C(c2ccc3sccc3c2O)C1 (stereo not drawn) (as salt: fumarate) [Example 88 (+)]
24 | 214 to 216 | CN1Cc2ccccc2C(c2ccc3sccc3c2O)C1 (stereo not drawn) (as salt: fumarate) [Example 88 (−)]
25 | 155 to 157 | CCN1Cc2ccccc2C(c2ccc3sccc3c2O)C1 (stereo not drawn) (as salt: fumarate) [Example 89 (−)]
26 | 184 to 187 | CN1Cc2ccccc2C(C2=Cc3ccccc3C2)C1 (stereo not shown) (as salt: maleate)
27 | 91 to 94 | CN1Cc2cc(C#N)ccc2C(c2cc3ccccc3s2)C1 (stereo not drawn) (as salt: maleate) [Example 79 (+)]
28 | 182 to 186 | COc1c(-c2cccnn2)ccc2c1CN(C)CC2c1ccc2ccccc2c1.O=C(O)/C=C/C(=O)O (racemic)
29 | 179 to 181 | CC1c2ccccc2C(c2ccc3sccc3c2)CN1C (racemic) (as salt: fumarate)
30 | 197 to 199 | COc1cccc2c1CN(C)CC2c1ccc2sccc2c1 (racemic) (as salt: fumarate)
31 | 103 to 106 | CN1Cc2cc(-c3ncccn3)ccc2C(c2cc3ccccc3s2)C1 (racemic) (as salt: maleate)
